# Experimental data reported in ChEMBL document CHEMBL1165930, “The anticancer activity of 3- and 10-bromofascaplysins is mediated by caspase-8, -9, -3-dependent apoptosis” (Bioorg Med Chem, 2010).
# pIC50: −log10 of the molar value. Calls of active or inactive are those of the source. The rule behind the calls is not given here.
# Assays:
# HL-60 [1] = test: Induction of apoptosis in human HL60 cells assessed as change in mitochondrial permeability at 500 nM after 24 hrs by DiOC6 staining-based flow cytometry (RVb = 90.3%); format: functional
# SK-MEL-28 [2] = test: Anticancer activity in human SK-MEL-28 cells assessed as inhibition of colony formation by anchorage-independent soft agar assay; format: functional
# THP-1 [3] = test: Induction of apoptosis in human THP1 cells assessed as early apoptotic cells at 1000 nM after 24 hrs by FITC-conjugated annexin V and propidium iodide staining-based flow cytometry; format: functional
# HL-60 [4] = test: Induction of apoptosis in human HL60 cells assessed as total apoptotic cells at 1000 nM after 24 hrs by FITC-conjugated annexin V and propidium iodide staining-based flow cytometry; format: functional
# [5] = Inhibition of EGF-stimulated colony formation in mouse JB6 Cl41 cells by anchorage-independent soft agar assay; format: functional
# [6] = Effect on EGF-stimulated proliferation of JNK1-expressing mouse JB6 Cl41 cells assessed as cell viability at 125 nM after 22 hrs by MTS assay; format: functional; conditions: JB6 Cl41, 22 h, read-out: Activity
# [7] = Effect on EGF-stimulated proliferation of p38-expressing mouse JB6 Cl41 cells assessed as cell viability at 250 nM after 22 hrs by MTS assay; format: functional; conditions: JB6 Cl41, 22 h, read-out: Activity
# HL-60 [8] = test: Induction of apoptosis in human HL60 cells assessed as decrease in procaspase-9 level at 250 nM after 24 hrs by Western blot analysis; format: functional, cell-based
# MDA-MB-231 = test: Cytotoxicity against human MDA-MB-231 cells after 22 hrs by MTS assay; format: functional, cell-based; conditions: MDA-MB-231, 22 h
# THP-1 [9] = test: Anticancer activity in human THP1 cells assessed as inhibition of colony formation by anchorage-independent soft agar assay; format: functional
# [10] = molecular target: Transcription factor Jun (Mus musculus) (UniProt P05627); test: Induction of AP1-mediated transcriptional activity in mouse JB6 Cl41 cells after 24 hrs by luciferase reporter gene assay; format: cell-based
# Sequence of Transcription factor Jun (Mus musculus) (P05627 whole entry): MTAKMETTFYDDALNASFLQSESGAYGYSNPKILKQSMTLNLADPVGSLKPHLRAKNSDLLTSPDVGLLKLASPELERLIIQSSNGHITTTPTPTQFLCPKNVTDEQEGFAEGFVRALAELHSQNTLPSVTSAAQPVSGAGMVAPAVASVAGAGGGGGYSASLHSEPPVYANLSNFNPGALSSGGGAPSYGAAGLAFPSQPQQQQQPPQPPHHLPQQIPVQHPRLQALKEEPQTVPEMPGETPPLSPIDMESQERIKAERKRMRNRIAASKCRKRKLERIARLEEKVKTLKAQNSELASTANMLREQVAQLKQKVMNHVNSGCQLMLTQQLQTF
# [11] = Cytotoxicity against human SNUC4 cells after 22 hrs by MTS assay; format: functional, cell-based; conditions: SNU-C4, 22 h
# THP-1 [12] = test: Induction of apoptosis in human THP1 cells assessed as non-viable necrotic cells at 500 nM after 24 hrs by FITC-conjugated annexin V and propidium iodide staining-based flow cytometry; format: functional
# THP-1 [13] = test: Induction of apoptosis in human THP1 cells assessed as viable cells at 500 nM after 24 hrs by FITC-conjugated annexin V and propidium iodide staining-based flow cytometry; format: functional; conditions: THP-1, 24 h, read-out: Activity
# HL-60 [14] = test: Induction of apoptosis in human HL60 cells assessed as decrease in PARP level at 250 nM after 24 hrs by Western blot analysis; format: functional, cell-based
# THP-1 [15] = test: Induction of apoptosis in human THP1 cells after 24 hrs by FITC-conjugated annexin V and propidium iodide staining-based flow cytometry; format: functional, cell-based
# HeLa [16] = test: Selectivity ratio of INCC50 for human HeLa cells to IC50 for human HeLa cells; format: functional
# SK-MEL-28 [17] = test: Selectivity ratio of INCC50 for human SK-MEL-28 cells to IC50 for human SK-MEL-28 cells; format: functional
# JB6 Cl41 = test: Inhibition of EGF-stimulated neoplastic transformation of mouse JB6 Cl41 cells by anchorage-independent soft agar assay; format: functional, cell-based
# THP-1 [18] = test: Induction of apoptosis in human THP1 cells assessed as early apoptotic cells at 500 nM after 24 hrs by FITC-conjugated annexin V and propidium iodide staining-based flow cytometry; format: functional
# [19] = molecular target: Cellular tumor antigen p53 (Mus musculus) (UniProt P02340); test: Inhibition of p53-mediated transcriptional activity in mouse JB6 Cl41 cells at 125 to 500 nM by luciferase reporter gene assay; format: cell-based; conditions: TDE = time-dependent effect
# Sequence of Cellular tumor antigen p53 (Mus musculus) (P02340 whole entry): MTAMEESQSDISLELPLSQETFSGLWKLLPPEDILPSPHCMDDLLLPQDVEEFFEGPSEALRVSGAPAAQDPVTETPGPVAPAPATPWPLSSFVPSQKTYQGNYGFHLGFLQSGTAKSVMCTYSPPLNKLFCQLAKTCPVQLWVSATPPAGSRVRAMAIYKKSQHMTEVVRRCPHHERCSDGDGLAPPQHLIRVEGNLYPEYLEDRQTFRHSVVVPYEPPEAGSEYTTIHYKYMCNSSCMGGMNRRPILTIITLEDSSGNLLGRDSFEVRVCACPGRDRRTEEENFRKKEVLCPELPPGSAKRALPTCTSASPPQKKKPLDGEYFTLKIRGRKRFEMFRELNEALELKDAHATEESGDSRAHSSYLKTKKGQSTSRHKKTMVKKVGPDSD
# [20] = molecular target: Cellular tumor antigen p53 (Mus musculus) (UniProt P02340); test: Inhibition of p53-mediated transcriptional activity in mouse JB6 Cl41 cells after 24 hrs by luciferase reporter gene assay; format: cell-based; conditions: TDE = time-dependent effect
# HeLa [21] = test: Cytotoxicity against human HeLa cells after 22 hrs by MTS assay; format: functional, cell-based
# THP-1 [22] = test: Induction of apoptosis in human THP1 cells assessed as viable cells at 1000 nM after 24 hrs by FITC-conjugated annexin V and propidium iodide staining-based flow cytometry; format: functional; conditions: THP-1, 24 h, read-out: Activity
# [23] = Selectivity ratio of INCC50 for mouse JB6 Cl41 cells to IC50 for mouse JB6 Cl41 cells; format: functional
# HL-60 [24] = test: Induction of apoptosis in human HL60 cells assessed as decrease in Bid protein level at 250 nM after 24 hrs by Western blot analysis; format: functional, cell-based
# HL-60 [25] = test: Induction of apoptosis in human HL60 cells assessed as decrease in procaspase-8 level at 500 nM after 24 hrs by Western blot analysis; format: functional, cell-based
# HL-60 [26] = test: Anticancer activity in human HL60 cells assessed as inhibition of colony formation by anchorage-independent soft agar assay; format: functional
# [27] = Effect on EGF-stimulated proliferation of mouse JB6 Cl41 cells assessed as cell viability at 250 nM after 22 hrs by MTS assay; format: functional; conditions: JB6 Cl41, 22 h, read-out: Activity
# HL-60 [28] = test: Selectivity ratio of INCC50 for human HL60 cells to IC50 for human HL60 cells; format: functional
# THP-1 [29] = test: Induction of apoptosis in human THP1 cells assessed as early apoptotic cells at 2000 nM after 24 hrs by FITC-conjugated annexin V and propidium iodide staining-based flow cytometry; format: functional
# [30] = molecular target: Transcription factor Jun (Mus musculus) (UniProt P05627); test: Induction of AP1-mediated transcriptional activity in mouse JB6 Cl41 cells at 125 to 250 nM after 24 hrs by luciferase reporter gene assay relative to control; format: cell-based
# [31] = Effect on EGF-stimulated proliferation of ERK2-expressing mouse JB6 Cl41 cells assessed as cell viability at 125 nM after 22 hrs by MTS assay; format: functional; conditions: JB6 Cl41, 22 h, read-out: Activity
compound,measurement,setting,value
O=C1c2ccc(Br)cc2-[n+]2ccc3c([nH]c4ccccc43)c21.[Cl-],Activity,HL-60 [1],30.6%
same,INCC50,SK-MEL-28 [2],162.9 nM
same,Activity,THP-1 [3],17.9%
same,Activity,HL-60 [4],90%
same,INCC50,[5],106.4 nM
same,viability at 0.125 µM,[6],60%
same,viability at 0.25 µM,[7],40%
same,inhibition,HL-60 [8],Active
same,pIC50,MDA-MB-231,6.24
same,INCC50,THP-1 [9],59.7 nM
same,Activity,[10],Dose-dependent effect
same,pIC50,[11],6.62
same,Activity,THP-1 [12],6.4%
same,viability at 0.5 µM,THP-1 [13],68.2%
same,inhibition,HL-60 [14],Active
same,Activity,THP-1 [15],Dose-dependent effect
same,Selectivity ratio,HeLa [16],3.1
same,Selectivity ratio,SK-MEL-28 [17],4.8
same,inhibition,JB6 Cl41,Dose-dependent effect
same,Activity,THP-1 [18],13%
same,inhibition,[19],tde
same,inhibition,[20],tde
same,pIC50,HeLa [21],6.47
same,viability at 1 µM,THP-1 [22],40.9%
same,Selectivity ratio,[23],2.7
same,inhibition,HL-60 [24],Active
same,inhibition,HL-60 [25],Active
same,INCC50,HL-60 [26],103.5 nM
same,viability at 0.25 µM,[27],60%
same,Selectivity ratio,HL-60 [28],5.3
same,Activity,THP-1 [29],25.8%
same,fold change (FC),[30],1.5
same,viability at 0.125 µM,[31],30%
